US20200079812A1, “UV-B ABSORBING COMPOUNDS ISOLATED FROM PLANTS” (MAX-PLANCK-GESELLSCHAFT ZUR FÖRDERUNG DER WISSENSCHAFTEN …, priority 2015, published 2020)
Several values for one entry are separate records, joined by “and”; a condition that tells them apart may be missing. Equal entries are not always repeated.

Assay: UV-B absorption profile (UV-VIS spectra, HPLC-PDA profiling)
Type: physicochemical
Protocol: Column chromatography was carried out over ODS (Nacalai Tesque, Cosmosil 75C18-OPN). HPLC analysis was carried out on an Atlantis® (ϕ4.6×150 mm, Waters) at a flow rate of 0.5 ml min^1. Preparative HPLC was performed on a LC 10A system (Shimadzu) using an Inertsil® ODS-EP 5 m ($6.0×150 mm) at 30° C. and monitoring was accomplished by PDA (200-600 nm). HPLC-PDA-ESI-MS (HPLC/photodiode array detection/electrospray ionization mass spectrometry) was performed on a Finnigan LCQ-DECA mass spectrometer (ThermoQuest, San Jose, Calif., USA) and an Agilent HPLC 1100 series (Agilent Technologies, Palo Alto, Calif., USA). HR-ESI-MS was performed on an Exactive™ mass spectrometer (ThermoQuest, San Jose, Calif., USA). Optical rotations were determined on a JASCO P-1020. UV spectra were recorded on a JASCO V-560. NMR data were recorded on JEOL JNM ECP-600. The deuterated solvent CD3OD was used for peak 4. Coupling constants are expressed in Hz.
UV-VIS spectra in the range between 260 nm and 450 nm were recorded and analyzed via HPLC-PDA profiling for kaempferol-3-Glc-2″-Rha-7Rha (FIG. 3A), saiginol A (kaempferol-3-Glc-2″-Rha-6″-sinapoyl-7Rha, FIG. 3B) and sinapoyl-glucose (FIG. 3C). HPLC-PDA (HPLC/photodiode array detection) was performed on Dionex Ultimate 3000 system (San Jose, Calif., USA). […]

Structure (SMILES)	UV-B absorption (efficiency / UV-B absorbent properties) (UV-VIS spectra 260-450 nm, HPLC-PDA profiling, FIG. 3)	Amax (UV-VIS absorption maximum) (UV-VIS spectrum, UV (MeOH))
CC1OC(Oc2cc(O)c3c(=O)c(OC4OC(CO)C(O)C(O)C4OC4OC(C)C(O)C(O)C4O)c(-c4ccc(O)cc4)oc3c2)C(O)C(O)C1O (centres unmarked) [kaempferol-3-Glc-2″-Rha-7Rha, kaempferol-3-O-Glc-2″-O-Rha-7-O-Rha, reference compound]	much less efficient	
COc1cc(/C=C/C(=O)OC[C@H]2O[C@@H](Oc3c(-c4ccc(O)cc4)oc4cc(O[C@@H]5O[C@@H](C)[C@H](O)[C@@H](O)[C@H]5O)cc(O)c4c3=O)[C@H](O[C@@H]3O[C@@H](C)[C@H](O)[C@@H](O)[C@H]3O)[C@@H](O)[C@@H]2O)cc(OC)c1O [Saiginol A, Kaempferol-3-O-[2-O-(α-L-rhamnopyranosyl)-6-O-(sinapoyl)-β-D-glucopyranoside]-7-O-α-L-rhamnopyranoside]		201.5 nm and 223.0 nm and 266.5 nm and 331.5 nm
